Assay results from US7368440B2, “Methods for the administration of amifostine and related compounds” (Medimmune Oncology, Inc., priority 2001, dated 2008).
Read-outs that look alike come from different tables or passages of the source.

Details: human, in vivo
Procedure: The reconstituted solution was drawn up in a 10 mL syringe for administration.
This solution was divided into two syringes (1.25 mL per syringe) for administration.
During the infusion, the subjects were kept in a supine position. […] Moreover, all subjects were given a standard lunch at noon, a standard dinner at 6:00 PM and a standard snack at 10:00 PM.
This formulation was administered by gently squirting the solution in the back of the subject's throat. […] All subjects were given a standard lunch at noon, a standard dinner at 6:00 PM and a standard snack at 10:00 PM.
All subjects were given a standard lunch at noon, a standard dinner at 6:00 PM and a standard snack at 10:00 PM.
Non-compartmental modelling of the data was performed.

SMILES: NCCCNCCS [WR-1065, S-2-(3-Aminopropyl Amino) ethanethiol]
- Relative bioavailability Ratio PO/IV (Metabolite): 0.32
- Relative bioavailability Ratio SC/IV (Metabolite): 0.71
- time at which WR-1065 concentration fell below 5 μM (iv): approximately 45 minutes
- time at which WR-1065 concentration fell below 5 μM (sc): approximately 60 minutes
- peak levels (maximum whole blood concentration) (male, iv): about 23 μM
- time within which whole blood concentrations peaked and declined rapidly (male, iv): ≤ 10 min
- maximum blood levels (male, sc): ~4 µM
- time to maximum and sustained whole blood concentration (male, sc): 15 to 45 min
